Experimental data from patent US20140323519A1, “HETEROCYCLIC COMPOUNDS AS B-RAF INHIBITORS FOR TREATMENT OF CANCER” (MERCK SHARP & DOHME CORP., priority 2011, published 2014).

Target: T1, B-Raf kinase (Homo sapiens, UniProt P15056)
T1 construct: purchased Upstate 14-530
Experiment: B-Raf kinase assay (IMAP fluorescence polarisation, B-raf/MEK1/ERK2 cascade)
Type: biochemical
Conditions: B-raf 0.2 U/mL, 50 μM ATP, 60 min pre-incubation, FP readout
Experimental: Other assays are known in the literature and could be readily performed by those of skill in the art.
9) B-raf, active enzyme (for example #14-530, Upstate)
13) Fluorescein labeled substrate peptide (“ERK-tide”; IPTTPITTTYFFFK-5FAM-COOH), (for example #R7292/#R7293, Molecular Devices)
Prepare fresh Kinase Reaction buffer (KR-buffer) just before use: 50 mL Reaction buffer+50 μl 1 M DTT (1 mM final concentration). Serial dilutions of test compounds are made in 100% DMSO. For example a 10 points half log serial dilution from 1 mM to 31.6 nM leading to a final compound concentration range in the assay from 10 μM to 0.316 nM can be used.
1) Add 2.5 μL/well test compound in KR-buffer (this solution contains 8% DMSO) or (in minimum, maximum and background wells) 2.5 μL/well KR-buffer containing 8% DMSO. (Final DMSO concentration in the assay is 1%).
2) Add 5 μL/well 0.8 U/mL B-raf enzyme diluted in KR-buffer (final B-raf enzyme concentration in the assay is 0.2 U/mL) to all wells.
3) Pre-incubate 60 minutes at room temperature in the dark.
4) Add 5 μL/well 256 ng/mL MEK1 enzyme diluted in KR-buffer (final MEK1 enzyme concentration in the assay is 64 ng/mL) to all wells.
5) Add 5 μL/well 2.4 μg/mL Erk2 enzyme with 200 nM Fl-peptide substrate diluted in KR-buffer (final concentration in the assay of Erk2 enzyme is 600 ng/mL and of Fl-peptide substrate is 50 nM) to all wells except the background wells. Add here 5 μL/well 2.4 μg/mL Erk2 enzyme without 200 nM Fl-peptide substrate.
6) Add 2.5 μL/well 400 μM ATP to minimum and compound wells (50× dilution of the mM stock in KR-buffer, final ATP concentration in the assay is 50 μM) or (in maximum wells) 2.5 μl/well KR-buffer.
7) Incubate 60 minutes at 30° C. in the dark.
8) Add 20 μL/well IMAP Progressive Binding Solution (IMAP Progressive Binding Solution: 75% 1× buffer A and 25% 1× buffer B with 1:900 dilution of Progressive Binding Reagent, all kit contents) to all wells.
9) Incubate 60 minutes at room temperature in the dark.
10) Read the FP signal on Envision multi-label reader.
On every 384-well assay plate, 16-18 wells are used as minimum wells (wells without inhibitor, 0% effect), 16-18 wells are used as maximum wells (wells without ATP, 100% effect). 16 wells are used for measuring the background signal (everything but not substrate). For all assay plates duplicates are prepared.
Run as two independent experiments (N=2) on duplicate plates (n=2).
IC50 Determinations: mP values of compound test wells are converted to percent effect based on 0% effect and 100% effect controls. Dose-response curves were generated from percent effect data plotted against test compound concentration, each in duplicate, from 10 point serial dilutions of inhibitory compounds. To generate IC50 values, the dose-response curves were fitted to a standard sigmoidal curve and IC50 values were derived by nonlinear regression analysis.

T1 sequence (P15056 416-766 limits assumed): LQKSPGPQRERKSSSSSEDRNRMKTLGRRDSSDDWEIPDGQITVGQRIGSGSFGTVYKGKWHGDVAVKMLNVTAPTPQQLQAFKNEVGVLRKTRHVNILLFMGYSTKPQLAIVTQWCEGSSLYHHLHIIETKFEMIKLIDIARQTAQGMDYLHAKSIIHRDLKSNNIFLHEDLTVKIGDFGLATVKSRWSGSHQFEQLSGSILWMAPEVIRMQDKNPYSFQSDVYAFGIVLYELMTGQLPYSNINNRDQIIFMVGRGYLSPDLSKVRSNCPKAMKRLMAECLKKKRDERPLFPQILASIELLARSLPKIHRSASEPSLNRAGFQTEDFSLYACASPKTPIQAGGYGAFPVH

IC50 [µM]	Structure (SMILES)
0.05 to 0.1	Cc1ccc(NC(=O)c2cccc(C(C)(C)C#N)c2)cc1-n1c(=O)n(C)c2ccccc21 [Compound 1-6, 3-(2-cyanopropan-2-yl)-N-(4-methyl-3-(3-methyl-2-oxo-2,3-dihydro-1H-benzo[d]imidazol-1-yl)phenyl)benzamide]
0.05 to 0.1	Cc1ccc(NC(=O)c2cccc(C(C)(C)C#N)c2)cc1N1CC(c2ccccc2)OC1=O (stereo not drawn) [Compound 1-7, 3-(Cyano-dimethyl-methyl)-N-[4-methyl-3-(2-oxo-5-phenyl-oxazolidin-3-yl)-phenyl]-benzamide]
> 0.1	Cc1ccc(NC(=O)c2cccc(C(C)(C)C#N)c2)cc1N1CCN(c2ccccc2)C1=O [Compound 1-8, 3-(Cyano-dimethyl-methyl)-N-[4-methyl-3-(2-oxo-3-phenyl-imidazolidin-1-yl)-phenyl]-benzamide]
> 0.1	COc1ccc2c(c1)n(-c1cc(NC(=O)c3cccc(C(C)(C)C#N)c3)ccc1C)c(=O)n2C [Compound 1-9, 3-(Cyano-dimethyl-methyl)-N-[3-(6-methoxy-3-methyl-2-oxo-2,3-dihydro-benzoimidazol-1-yl)-4-methyl-phenyl]-benzamide]

Second part, the compound before the results:

Structure (SMILES)	IC50 [µM]
COc1ccc2c(c1)C(=O)N(c1cc(NC(=O)c3cccc(C(C)(C)C#N)c3)ccc1C)C2 [Compound 1-1, 3-(2-cyanopropan-2-yl)-N-(3-(6-methoxy-1-oxoisoindolin-2-yl)-4-methylphenyl)benzamide]	0.05 to 0.1
Cc1ccc(NC(=O)c2cccc(C(C)(C)C#N)c2)cc1N1CC(c2ccccc2)CC1=O (stereo not drawn) [Compound 1-5, 3-(Cyano-dimethyl-methyl)-N-[4-methyl-3-(2-oxo-4-phenyl-pyrrolidin-1-yl)-phenyl]-benzamide]	0.05 to 0.1
